Test results: US6660734B1, “Oxazinones having antibacterial activity” (Simon Fraser University, priority 1997, dated 2003)

Tests used:
Micrococcus luteus = test: Filter disc bioassay on agar plates seeded with Micrococcus luteus; format: cell-based; settings: for ZONE SIZE: M. luteus, overnight 37° C.
Protocol: Samples were applied to filter discs in the amounts indicated. The discs were applied to agar plates seeded with Micrococcus luteus, and the plates were incubated overnight at 37° C. The results are illustrated in FIG. 5 and summarized in the following Table 1: Samples were assayed as in Example 3, with the results summarized in the following Table 2: […]

[1] = tested on: glutamate-aspartate transaminase; settings: according to Khomutov; cited from earlier work
tuberculosis bacilli = settings: according to Khomutov; cited from earlier work

SMILES: CC1(C)S[C@@H]2[C@H](NC(=O)Cc3ccccc3)C(=O)N2[C@H]1C(=O)O [penicillin G]
- ZONE SIZE (Micrococcus luteus; Table 1, 0.1 micrograms on filter disc): 1.6 cm

SMILES: CC1=C(C(=O)O)N2C(=O)[C@@H](NC(=O)Cc3ccccc3)[C@H]2SC1 [desacetoxycephalosporin G]
- ZONE SIZE (Micrococcus luteus; Table 2, 2.5 micrograms on filter disc): 2.5 cm

SMILES: NC1CCONC1=O (racemic) [cyclocanaline, 4-amino-tetrahydro-1,2-oxazin-3-one]
- inhibition of glutamate-aspartate transaminase [1]: known to lnhibit glutamate-aspartate transaminase
- activity against tuberculosis bacilli (tuberculosis bacilli): exhibits activity against tuberculosis bacilli

SMILES: O=C(O)CN1OC=C(O)CC1=O [Example 1, 2-Carboxymethyl-5-hydroxy-1,2-oxazin-3-one]
- antibacterial activity (Micrococcus luteus; in words, from Tables 1 and 2): weak antibacterial activity
- antibacterial activity, times less than that of penicillin (Micrococcus luteus; relative to penicillin, from Tables 1 and 2): at least 1000 times

SMILES: CC(CN1OC=C(O)CC1=O)C(=O)O (stereo not shown) [Example 2, 2-[2-Carboxypropyl]-5-hydroxy-1,2-oxazin-3-one]
- activity, times the activity of the carboxymethyl product (Micrococcus luteus; relative to product of Example 1, from Tables 1 and 2): approximately 50 times
